Results reported in patent publication US6093732A, “4-hydroxyquinoline-3-carboxamides and hydrazides as antiviral agents” (Pharmacia & Upjohn Company, priority 1998, dated 2000).
Where two headings read alike, the source gives them in different places.

Biological target: T1, HCMV polymerase (Human cytomegalovirus, UniProt P08546)
T1 construct: made in house; host or cells: recombinant baculovirus-infected SF-9 cells
Assay: HCMV polymerase scintillation proximity assay (SPA), modified version
Assay type: biochemical
Conditions: compounds in 100% DMSO
Outline: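 Recombinant polymerase (baculovirus/SF-9) in 5.4 mM HEPES pH 7.5, 11.7 mM KCl, 4.5 mM MgCl2, 0.36 mg/ml BSA, 90 nM 3H-dTTP, ±2 mM CHAPS; started with 6 nM biotinylated poly(dA)-oligo(dT), 25° C or 37° C, EDTA-stopped in linear range (30 min for HCMV). Streptavidin-SPA read; IC50 by linear regression. Modified version: 100% DMSO compound dilution, 4.5 mM DTT added.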

[1] = CMV polymerase, Table 1, modified assay with 4.5 mM DTT, read-out: Antiviral Selective Polymerase IC50 Values, CMV
[2] = Antiviral Selective Polymerase IC50 Values, CMV, Table 1, modified assay with 4.5 mM DTT

T1 sequence (P08546 whole entry): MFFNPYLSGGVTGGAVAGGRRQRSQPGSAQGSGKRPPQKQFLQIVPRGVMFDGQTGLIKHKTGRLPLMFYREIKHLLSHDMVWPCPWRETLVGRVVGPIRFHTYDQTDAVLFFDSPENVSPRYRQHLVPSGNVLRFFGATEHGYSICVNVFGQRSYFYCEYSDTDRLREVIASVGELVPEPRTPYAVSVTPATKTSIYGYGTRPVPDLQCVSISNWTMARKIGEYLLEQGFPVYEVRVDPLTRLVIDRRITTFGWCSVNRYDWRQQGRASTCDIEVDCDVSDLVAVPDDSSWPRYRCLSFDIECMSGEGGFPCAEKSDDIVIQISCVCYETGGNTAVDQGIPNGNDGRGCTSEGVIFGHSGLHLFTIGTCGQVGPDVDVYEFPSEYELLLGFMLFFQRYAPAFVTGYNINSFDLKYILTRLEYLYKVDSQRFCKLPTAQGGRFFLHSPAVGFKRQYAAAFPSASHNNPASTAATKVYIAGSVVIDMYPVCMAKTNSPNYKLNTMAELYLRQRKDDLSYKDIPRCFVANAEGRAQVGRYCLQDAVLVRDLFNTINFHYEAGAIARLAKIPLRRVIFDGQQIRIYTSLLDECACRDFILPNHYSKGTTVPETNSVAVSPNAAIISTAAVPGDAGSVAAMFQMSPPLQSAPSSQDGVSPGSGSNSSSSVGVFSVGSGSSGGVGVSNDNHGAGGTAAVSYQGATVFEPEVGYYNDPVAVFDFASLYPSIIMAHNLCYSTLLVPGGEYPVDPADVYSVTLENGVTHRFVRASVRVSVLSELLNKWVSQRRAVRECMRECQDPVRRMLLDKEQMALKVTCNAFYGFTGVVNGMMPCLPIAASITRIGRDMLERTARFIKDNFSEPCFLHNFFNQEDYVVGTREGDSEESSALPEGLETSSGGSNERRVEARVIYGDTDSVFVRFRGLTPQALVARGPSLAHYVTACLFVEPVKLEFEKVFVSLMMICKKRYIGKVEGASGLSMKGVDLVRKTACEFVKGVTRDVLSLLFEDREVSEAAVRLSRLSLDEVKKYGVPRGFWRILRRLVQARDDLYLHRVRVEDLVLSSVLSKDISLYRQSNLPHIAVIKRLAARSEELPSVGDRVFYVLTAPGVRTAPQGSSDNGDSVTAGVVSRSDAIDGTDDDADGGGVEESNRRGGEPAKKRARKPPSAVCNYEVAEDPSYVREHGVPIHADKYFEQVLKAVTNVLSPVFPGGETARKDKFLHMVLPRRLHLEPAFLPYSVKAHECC

Row | IC50 [1] | Compound | IC50 [2]
1 | 23.4 µM | C#CCNS(=O)(=O)c1cc(F)c2ncc(C(=O)NCc3ccc(Cl)cc3)c(O)c2c1 [Example 232, N-(4-chlorobenzyl)-8-fluoro-4-hydroxy-6-[(2-propynylamino)sulfonyl]-3-quinolinecarboxamide] | –
2 | 11.2 µM | CC(C)CCNS(=O)(=O)c1cc(F)c2ncc(C(=O)NCc3ccc(Cl)cc3)c(O)c2c1 [Example 233, N-(4-chlorobenzyl)-8-fluoro-4-hydroxy-6-[(isopentylamino)sulfonyl]-3-quinolinecarboxamide] | –
3 | 8.9 µM | O=C(NCc1ccc(Cl)cc1)c1cnc2c(F)cc(S(=O)(=O)NCCCc3ccccc3)cc2c1O [Example 234, N-(4-chlorobenzyl)-8-fluoro-4-hydroxy-6-{[(3-phenylpropyl)amino]sulfonyl}-3-quinolinecarboxamide] | –
4 | 11.8 µM | CCCCCNS(=O)(=O)c1cc(F)c2ncc(C(=O)NCc3ccc(Cl)cc3)c(O)c2c1 [Example 235, N-(4-chlorobenzyl)-8-fluoro-4-hydroxy-6-[(pentylamino)sulfonyl]-3-quinolinecarboxamide] | –
5 | 6.6 µM | O=C(NCc1ccc(Cl)cc1)c1cnc2c(F)cc(S(=O)(=O)NCc3cc(C(F)(F)F)cc(C(F)(F)F)c3)cc2c1O [Example 236, 6-({[3,5-bis(trifluoromethyl)benzyl]amino}sulfonyl)-N-(4-chlorobenzyl)-8-fluoro-4-hydroxy-3-quinolinecarboxamide] | –
6 | 6.9 µM | O=C(NCc1ccc(Cl)cc1)c1cnc2c(F)cc(S(=O)(=O)NCCC3=CCCCC3)cc2c1O [Example 237, N-(4-chlorobenzyl)-6-({[2-(1-cyclohexen-1-yl)ethyl]amino}-sulfonyl)-8-fluoro-4-hydroxy-3-quinolinecarboxamide] | –
7 | 1.6 µM | O=C(NCc1ccc(Cl)cc1)c1cnc2c(F)cc(S(=O)(=O)NCCNc3cccc4ccccc34)cc2c1O [Example 238, N-(4-chlorobenzyl)-8-fluoro-4-hydroxy-6-({[2-(1-naphthylamino)ethyl]amino}sulfonyl)-3-quinolinecarboxamide] | –
8 | 13.1 µM | CNS(=O)(=O)c1cc(F)c2ncc(C(=O)NCc3ccc(Cl)cc3)c(O)c2c1 [Example 239, N-(4-chlorobenzyl)-8-fluoro-4-hydroxy-6-[(methylamino)sulfonyl]-3-quinolinecarboxamide] | –
9 | 11.4 µM | N#CCNS(=O)(=O)c1cc(F)c2ncc(C(=O)NCc3ccc(Cl)cc3)c(O)c2c1 [Example 240, N-(4-chlorobenzyl)-6-{[(cyanomethyl)amino]sulfonyl}-8-fluoro-4-hydroxy-3-quinolinecarboxamide] | –
10 | 16 µM | COc1ccc(CNS(=O)(=O)c2cc(F)c3ncc(C(=O)NCc4ccc(Cl)cc4)c(O)c3c2)c(OC)c1 [Example 241, N-(4-chlorobenzyl)-6-{[(2,4-dimethoxybenzyl)amino]sulfonyl}-8-fluoro-4-hydroxy-3-quinolinecarboxamide] | –
11 | 8.4 µM | O=C(NCc1ccc(Cl)cc1)c1cnc2c(F)cc(S(=O)(=O)NCc3cccc(I)c3)cc2c1O [Example 242, N-(4-chlorobenzyl)-8-fluoro-4-hydroxy-6-{[(3-iodobenzyl)amino]sulfonyl}-3-quinolinecarboxamide] | –
12 | 15.5 µM | O=C(NCc1ccc(Cl)cc1)c1cnc2c(F)cc(S(=O)(=O)NCC(F)(F)F)cc2c1O [Example 243, N-(4-chlorobenzyl)-8-fluoro-4-hydroxy-6-{[(2,2,2-trifluoroethyl)amino]sulfonyl}-3-quinolinecarboxamide] | –
13 | – | O=C(NCc1ccc(Cl)cc1)c1cnc2c(F)cc(S(=O)(=O)NCCBr)cc2c1O [Example 244, 6-{[(2-bromoethyl)amino]sulfonyl}-N-(4-chlorobenzyl)-8-fluoro-4-hydroxy-3-quinolinecarboxamide] | 19 µM
14 | – | O=C(NCc1ccc(Cl)cc1)c1cnc2c(F)cc(S(=O)(=O)NCCCl)cc2c1O [Example 245, N-(4-chlorobenzyl)-6-{[(2-chloroethyl)amino]sulfonyl}-8-fluoro-4-hydroxy-3-quinolinecarboxamide] | 13.3 µM
15 | 8.6 µM | O=C(NCc1ccc(Cl)cc1)c1cnc2c(F)cc(S(=O)(=O)NCCc3ccc(O)c(O)c3)cc2c1O [Example 246, N-(4-chlorobenzyl)-6-{[(3,4-dihydroxyphenethyl)amino]-sulfonyl}-8-fluoro-4-hydroxy-3-quinolinecarboxamide] | –
16 | 10.2 µM | CCSCCNS(=O)(=O)c1cc(F)c2ncc(C(=O)NCc3ccc(Cl)cc3)c(O)c2c1 [Example 247] | –
17 | 11.6 µM | O=C(NCc1ccc(Cl)cc1)c1cnc2c(F)cc(S(=O)(=O)NCCCBr)cc2c1O [Example 248, 6-{[(3-bromopropyl)amino]sulfonyl}-N-(4-chlorobenzyl)-8-fluoro-4-hydroxy-3-quinolinecarboxamide] | –
18 | 7.6 µM | NS(=O)(=O)c1ccc(CNS(=O)(=O)c2cc(F)c3ncc(C(=O)NCc4ccc(Cl)cc4)c(O)c3c2)cc1 [Example 249, 6-({[4-(aminosulfonyl)benzyl]amino}sulfonyl)-N-(4-chlorobenzyl)-8-fluoro-4-hydroxy-3-quinolinecarboxamide] | –
19 | 45.2 µM | O=C(NCc1ccc(Cl)cc1)c1cnc2c(F)cc(S(=O)(=O)NCCN(CCO)CCO)cc2c1O [Example 250, 6-[({2-[bis(2-hydroxyethyl)amino]ethyl}amino)sulfonyl]-N-(4-chlorobenzyl)-8-fluoro-4-hydroxy-3-quinolinecarboxamide] | –
20 | 18.7 µM | CCSCCNS(=O)(=O)c1cc(F)c2ncc(C(=O)NCc3ccc(Cl)cc3)c(O)c2c1 [Example 251, N-(4-chlorobenzyl)-6-({[2-(ethylsulfanyl)ethyl]amino}sulfonyl)-8-fluoro-4-hydroxy-3-quinolinecarboxamide] | –
21 | 18.9 µM | Cc1ccc(CNS(=O)(=O)c2cc(F)c3ncc(C(=O)NCc4ccc(Cl)cc4)c(O)c3c2)cc1C [Example 252, N-(4-chlorobenzyl)-6-{[(3,4-dimethylbenzyl)amino]sulfonyl}-8-fluoro-4-hydroxy-3-quinolinecarboxamide] | –
22 | 20.6 µM | O=C(NCc1ccc(Cl)cc1)c1cnc2c(F)cc(S(=O)(=O)NCC3CC3)cc2c1O [Example 253, N-(4-chlorobenzyl)-6-{[(cyclopropylmethyl)amino]sulfonyl}-8-fluoro-4-hydroxy-3-quinolinecarboxamide] | –
23 | 14.7 µM | O=C(NCc1ccc(Cl)cc1)c1cnc2c(F)cc(S(=O)(=O)NCc3ccc(Br)cc3)cc2c1O [Example 254, 6-{[(4-bromobenzyl)amino]sulfonyl}-N-(4-chlorobenzyl)-8-fluoro-4-hydroxy-3-quinolinecarboxamide] | –
24 | 12.1 µM | O=C(NCc1ccc(Cl)cc1)c1cnc2c(F)cc(S(=O)(=O)NCCc3cccs3)cc2c1O [Example 255, N-(4-chlorobenzyl)-8-fluoro-4-hydroxy-6-({[2-(2-thienyl)ethyl]amino}sulfonyl)-3-quinolinecarboxamide] | –
25 | 9.3 µM | O=C(NCc1ccc(Cl)cc1)c1cnc2c(F)cc(S(=O)(=O)NCCOc3ccccc3)cc2c1O [Example 256, N-(4-chlorobenzyl)-8-fluoro-4-hydroxy-6-{[(2-phenoxyethyl)amino]sulfonyl}-3-quinolinecarboxamide] | –
26 | 16.3 µM | CC(C)(C)OC(=O)CNS(=O)(=O)c1cc(F)c2ncc(C(=O)NCc3ccc(Cl)cc3)c(O)c2c1 [Example 257, tert-butyl 2-{[(3-{[(4-chlorobenzyl)amino]carbonyl}-8-fluoro-4-hydroxy-6-quinolinyl)sulfonyl]amino}acetate] | –
